Patent publication US11679123B2, “N-acylated hyaluronic acid for hyperuricemia and gouty arthritis” (Queen's University at Kingston, priority 2018, dated 2023)

Tests used:
xanthine oxidase (XO) = test: XO levels in serum and liver of hyperuricemic mice; type: in vivo, Balb/C mice
Description: (§1) Due to the presence of uricase in mice, a hyperuricemic mouse model was established by using uricase inhibitor and large amounts of purine. Mice were randomly divided into five groups (n=10), including the control group (NC), model group (MC), 20 mg/kg of AL (Shimao Tianjie Pharmaceutical Co. Ltd, Jiangsu, China) group, 10 μg BHA group (10BHA) and 50 μg BHA group (50BHA). Oral administration of AL and intraperitoneal injection of BHA were administered according to the required dose, and all mice were gavage fed 20 g/kg yeast extract powder 12 h prior to the administration of AL and BHA except for NC mice for 8 days. From the 6th to 8th day, 1-h prior to AL and BHA administration, 300 mg/kg of OXO (Sigma, USA) was intraperitoneally injected to all of the mice except those in the control group. At 1 h after the final drug administration, blood was sampled from caudal veins of the mice, serum was separated and their livers were quickly collected (FIG. 3A, E). All samples were stored at −80° C. until assay measurements were performed.
The serum UA concentrations and XO levels in the serum and liver were determined with a standard diagnostic kit (MAK077, MAK078 Sigma, USA) according to the manufacturer's instructions.

[1] = test system: factors related to oxidative stress; test: Factors related to oxidative stress in serum and liver of hyperuricemia mice (ELISA); type: in vivo, Balb/C mice; conditions: for Liver CAT / Liver GSH-PX / Liver MDA / Liver ROS / Liver SOD / Serum CAT / Serum GSH-PX / Serum MDA / Serum ROS / Serum SOD: hyperuricemia mice, mean ± S.D., n=10
Description: as §1
The levels of reactive oxygen species (ROS, 43355), malondialdehyde (MDA, 43124) glutathione peroxidase (GSH-Px, 43390), superoxide dismutase (SOD, 43125), catalase (CAT, 43356), creatinine (Cr, 43353) and blood urea nitrogen (BUN, 43352) in the serum and livers of mice were determined using ELISA Kits (Yuanye Bio-Technology Co. Ltd, Shanghai, China) according to the manufacturer's instructions.

[2] = test system: inflammatory cell infiltration in the synovium; test: Histopathological assessment of ankle joint synovium (H&E) in MSU crystal-injected rats; type: in vivo, Wistar rats
Description: In one study, a histopathological assessment was conducted of synovium in ankle joints of rats after H&E staining. The right ankles of […] were excised and fixed in 4% paraformaldehyde, and subsequently decalcified using 10% ethylenediaminetetraacetic acid. They were then dehydrated via processing in alcohol/xylene mixtures with different proportions and concentrations. The histological sections were stained with hematoxylin and eosin. The histopathological changes of the joint synovium were assessed for the degree of inflammatory cell infiltrate, by an experienced histopathologist. Microscopy at magnifications of 40×, 100×, 200× and 400× were investigated for typical areas for each of the five groups.
The right ankles of rats were collected and fixed in 4% paraformaldehyde, and subsequently decalcified using 10% ethylenediaminetetraacetic acid. They were then dehydrated by processing in alcohol/xylene mixtures with different proportions and concentrations. The histological sections were later stained with hematoxylin and eosin for observation under an optical microscope (200×). The histopathological changes were analyzed with regard to deformaties of the joint synovium and infiltration by inflammatory cells into the ankle.

[3] = test system: rats with MSU-induced gouty arthritis; test: Dose screening on MSU crystals-induced acute gout in rats: ankle swelling ratio; type: in vivo, Wistar rats; conditions: P<0.05
Description: 48 male Wistar rats (8 weeks: 180-200 g), purchased from Yisi Experimental Animal Technology Company Ltd, Jilin, China (SCXK (Ji)-2016-0003), were housed in plastic cages and maintained on a 12-h light/12-h dark cycle (lights on 7:00-19:00 h) under standard laboratory conditions of 55% relative humidity and 23° C.±1° C. They were given standard chow and tap water ad libitum. All experimental procedures were approved by the Animal Ethics Committee of Jilin University (Reference NO. 201605).
An experimental model of MSU-induced gouty arthritis was used in order to evaluate the anti-inflammatory activities of BHA similar as previous studies with some modifications. Rats were randomly divided into eight groups (n=6), including control group (NC), model group (MC), 0.3 mg/kg colchicine group (COL), 5 μg BHA group (5BHA), 10 μg BHA group (10BHA), 25 μg BHA group (25BHA), 50 μg BHA group (50BHA), 100 μg BHA group (100BHA). MSU crystals were suspended in 0.9% sterile saline (30 mg/mL) prior to use. Rats in the colchicine group were orally administered colchicine (0.3 mg/kg) for 8 days. At day 6, MSU solution (100 μL of 30 mg/mL) was intra-articular injected at the right ankles of all rats except the NC group m which were injected with saline solution. 5BHA, 10BHA, 25BHA, 50BHA and 100BHA groups received intra-articular injections of 5, 10, 25, 50, or 100 μg BHA along with MSU solution (100 μL of 30 mg/mL MSU solution contains 5, 10, 25, 50 or 100 μg BHA) were administered according to the stated BHA doses.
The right ankle circumference of all rats at 0, 4, 12, 24 and 48 h after MSU injection was measured. The swelling ratio (%) was used for evaluating the gouty arthritis and calculated according to the change of the circumference following the formula: Swelling ratio (%)=(Ct−C0)/C0. Wherein, Ct represented the circumference at t hour and C0 represented the circumference at 0 hour.

[4] = 10 μg BHA intraperitoneal (10BHA)
[5] = 50 μg BHA intraperitoneal (50BHA)

In the case of N-butyrylated HA [BHA], the “reduction of XO levels in the liver compared to untreated mice” value (xanthine oxidase (XO); 10 μg BHA, P<0.05) is reported as 19.78%, the “XO activity in the livers of hyperuricemic mice” value (xanthine oxidase (XO); 50 μg BHA) is reported as “no significant effect on XO activity” and the “decrease of ROS levels in the liver” value ([1]; 10 μg BHA, P<0.01) is reported as 8.04%. For the same substance, the “decrease of ROS levels in the serum” value ([1]; 10 μg BHA, P<0.01) was 14.87%, the “improvement of liver SOD” value ([1]; 10 μg BHA, P<0.05) was 12.77% and the “decrease of ROS levels in the liver” value ([1]; 50 μg BHA, P<0.05) was 9.59%. The “decrease of ROS levels in the serum” value ([1]; 50 μg BHA, P<0.05) was 14.63%, the “improvement of liver SOD” value ([1]; 50 μg BHA, P<0.05) was 13.69% and the “Liver CAT” value [1, 4] was 13.1 ± 1.4 U/mg. The “Liver GSH-PX” value [1, 4] was 78.8 ± 8^ U/mg, the “Liver MDA” value [1, 4] was 3.4 ± 0.2 nmol/mg and the “Liver ROS” value [1, 4] was 70.8 ± 3.7 U/mg. The “Liver SOD” value [1, 4] was 56.8 ± 5.8 U/mg, the “Serum CAT” value [1, 4] was 43.3 ± 4.6 U/mL and the “Serum GSH-PX” value [1, 4] was 246.8 ± 10.2 U/mL. For the same substance, the “Serum MDA” value [1, 4] was 10.4 ± 0.5 nmol/mL, the “Serum ROS” value [1, 4] was 226.6 ± 17.9 U/mL and the “Serum SOD” value [1, 4] was 166.6 ± 11.8 U/mL. The “Liver CAT” value [1, 5] was 14.1 ± 1.5 U/mg, the “Liver GSH-PX” value [1, 5] was 77.9 ± 7.3 U/mg and the “Liver MDA” value [1, 5] was 3.5 ± 0.2 nmol/mg. For the same substance, the “Liver ROS” value [1, 5] was 69.6 ± 7.1 U/mg, the “Liver SOD” value [1, 5] was 57.2 ± 4.4 U/mg and the “Serum CAT” value [1, 5] was 41.5 ± 6^ U/mL. For the same substance, the “Serum GSH-PX” value [1, 5] was 231.4 ± 13.3 U/mL, the “Serum MDA” value [1, 5] was 10.5 ± 0.3 nmol/mL and the “Serum ROS” value [1, 5] was 227.2 ± 17.9 U/mL. The “Serum SOD” value [1, 5] was 161.2 ± 8 U/mL, the “pathological changes (inflammatory cell infiltration) in synovium” value ([2]; 10 μg of BHA, MSU crystal-injected rats, H&E) was “partially prevented the pathological changes” and the “attenuation of inflammatory cell infiltration in synovium” value ([2]; higher dose BHA (50BHA, 50 μg)) was “not as effective as the 10BHA dose”. The “swelling of the ankle compared to MSU treated group” value ([3]; n=6, BHA 5-100 μg intra-articular, at 4 h and 12 h) was “significantly suppressed swelling” and the “swelling of the ankle compared to MSU treated group” value ([3]; n=6, BHA at doses of 10 μg, 50 μg and 100 μg, at 48 h) was “significant suppressing of swelling effect”.
